Assays:
mice [1] = assay: DOI‐induced head‐twitch reaction (HTR); type: in vivo; details: 30 mg kg^−1 i.p. 60 min before DOI, 20 min observation
Description: (§1) The tests were performed on male white mice of the Albino Swiss strain, whose weight was between 24 and 30 g in Experimental Medicine Center, Medical University of Lublin, Poland. The animals were housed (four/five per cage). Before conducting the experimental tests, the animals were subjected to an adaptation that lasted seven days. This consisted of keeping them in a room with relatively constant conditions: a temperature of 22 ± 1 °C, a humidity of 55 ± 5% and lighting that mimicked the natural day and night rhythm (12 h/12 h). Constant access to food and water was provided. Standard feed—LSM Motycz pelleted feed—and tap water were used. Mice were randomly allocated to study groups. Each group was represented by 8–10 animals, depending on the research schedule. The experiments were performed according to the procedures set out in the regulations for animal experiments: National Institute of Health Guidelines for the Care and Use of Laboratory Animals (8th edition) and to the European Community Council Directive for the Care and Use of Laboratory Animals of 22 September 2010 (2010/63/EU). […]
Head‐twitch reaction (HTR) is a very characteristic behavior of the head. […] Then, after administration of the tested compounds, DOI was immediately observed for 20 min, and the number of HTR was counted. […]

mice [2] = assay: Amphetamine‐induced hyperactivity test; type: in vivo; details: 30 mg/kg i.p. 60 min before test, amphetamine 3 mg kg^−1 s.c., 20 min observation
Description: as §1, with “(2010/63/EU). The study was approved by the Local Ethical Committee in Lublin (number of ethical approvals: 27/2023). Tested compounds: FG‐1, FG‐4, FG‐5, FG‐6, FG‐7, FG‐8, and FG‐18 were finely ground in mortars with the addition of the emulsifier Tween‐80.” for “(2010/63/EU).”

larval zebrafish [3] = assay: Light–dark transition assay in larval zebrafish; type: in vivo, zebrafish (Danio rerio); details: 5 dpf larvae, 20 h incubation at maximum‐tolerated concentration (FG‐1 500 μM, FG‐18 25 μM)
Description: (§2) All experiments were conducted on zebrafish (Danio rerio) larvae up to 5 days post fertilization (dpf), therefore, in accordance with current European legislation, ethical permission to conduct assays was not required. However, housing and experimental procedures were performed in compliance with the National Institute of Health Guidelines for the Care and Use of Laboratory Animals and the European Union Directive of 22 September 2010 (2010/63/EU) on protecting animals used for scientific purposes. All efforts were taken to minimize larvae stress and suffering. Larvae were euthanized with an overdose of tricaine ([…]). […] Before the respective behavioral tests were conducted, larvae at 4 dpf were incubated for 20 h in different arylpiperazine derivatives solutions of maximum‐tolerated concentrations (MCTs), determined during toxicological screening.^[ [30], [32] ^] […] Basic locomotor activity was measured using an automated tracking device, Daniovision by Noldus, and the total distance traveled was quantified using EthoVision XT software of the same company (Wageningen, the Netherlands) over a 30 min long observation period. […] The PTZ‐induced hyperlocomotion (acute seizure assay) was assessed in 5 dpf larval zebrafish (after 20 h incubation with tested derivatives at MCTs). […] Similarly, the data were recorded as the distance traveled (mm) by larvae when exposed to alternating lightning. […]

larval zebrafish [4] = assay: PTZ‐induced acute seizure assay in larval zebrafish; type: in vivo, zebrafish (Danio rerio); details: 5 dpf larvae, 20 h incubation at maximum‐tolerated concentration (FG‐1 500 μM, FG‐18 25 μM), PTZ 20 mM, 30 min
Description: as §2

mice [5] = assay: Body temperature in normothermic mice; type: in vivo
Description: as §1, with “schedule.” for “schedule. The experiments were performed according to the procedures set out in the regulations for animal experiments: National Institute of Health Guidelines for the Care and Use of Laboratory Animals (8th edition) and to the European Community Council Directive for the Care and Use of Laboratory Animals of 22 September 2010 (2010/63/EU).”
Body temperature in normothermic mice was measured in the rectum of animals by thermistor thermometer till 120 min after tested compounds injection. […] The final temperature (tf) was measured 30, 60, 90, and 120 min after the injection of tested compounds. Body temperature changes (Δt) were calculated according to the formula: Δt = tf − ti.

Row | SMILES | DOI‐induced HTR (number of head twitches) (mice [1]) | amphetamine‐induced hyperactivity (mice [2]) | larval behavior under the dark conditions (light–dark transition) (larval zebrafish [3]) | distance traveled by PTZ‐exposed larvae (seizure‐like behavior) (larval zebrafish [4]) | also measured
1 | O=C(NCCCN1CCN(c2ccccc2C2=NCCS2)CC1)c1ccccn1 [FG‐1, N‐(3‐(4‐(2‐(4,5‐dihydrothiazol‐2‐yl) phenyl) piperazin‐1‐yl) propyl) picolinamide] | significant decrease in HTR | significant decrease in amphetamine‐induced hyperactivity | influenced larval behavior under the dark conditions | substantially decreased | –
2 | O=C(NCCCN1CCN(c2ccccc2C2=NCCS2)CC1)c1ccncc1 [FG‐4, N‐(3‐(4‐(2‐(4,5‐dihydrothiazol‐2‐yl) phenyl) piperazin‐1‐yl) propyl) isonicotinamide] | – | significant decrease in amphetamine‐induced hyperactivity | – | – | –
3 | O=C(NCCCN1CCN(c2cccc(C3=NCCS3)c2)CC1)c1ccncc1 [FG‐5, N‐(3‐(4‐(3‐(4,5‐dihydrothiazol‐2‐yl) phenyl) piperazin‐1‐yl) propyl) isonicotinamide] | – | – | – | – | body temperature of normothermic mice (mice [5]; 30 mg kg^−1 i.p., from 30 to 90 min): significant decrease in the body temperature
4 | O=C(NCCCN1CCN(c2ccc(C3=NCCS3)cc2)CC1)c1ccncc1 [FG‐6, N‐(3‐(4‐(4‐(4,5‐dihydrothiazol‐2‐yl) phenyl) piperazin‐1‐yl) propyl) isonicotinamide] | – | – | – | – | body temperature of normothermic mice (mice [5]; 15 mg kg^−1 i.p., from 30 to 90 min and also in 120 min): significant decrease in the body temperature
5 | O=C(NCCCN1CCN(c2ccc(C3=NCCS3)cc2)CC1)C1CC2C=CC1C2 (stereo not drawn) [FG‐18, Endo‐ N‐(3‐(4‐(4‐(4,5‐dihydrothiazol‐2‐yl)phenyl)piperazin‐1‐yl)propyl) bicyclo[2.2.1]hept‐5‐ene‐2‐carboxamide] | significant decrease in HTR | – | influenced larval behavior under the dark conditions | significantly increased the distance traveled | –

From article PMC12321279, “Novel 4,5‐Dihydrothiazole‐Phenylpiperazine Derivatives: Synthesis, Docking Studies and Pharmacological Evaluation as Serotonergic Agents” (Chemmedchem, 2025)
